Measurements taken from patent publication US7351701B2, “Therapeutic compounds” (Cancer Research Technology Limited, priority 2004, dated 2008).
Read-outs that look alike come from different tables or passages of the source.

What was measured:
[1] = biological target: T1, PARP (Homo sapiens, UniProt P09874); assay: PARP activity in SW620 xenograft tumour homogenates from formula III-treated mice ([32P] NAD+ incorporation); type: in vivo; details: 10 mg/kg intraperitoneal
T1 construct: PARP activity in tumour homogenates (1 in 40 in isotonic buffer) from formula III-treated mice; from tissue; host or cells: homogenates of SW620 xenograft tumours grown in mice
Protocol: FIG. 7 is a bar chart showing the pharmacokinetics and pharmacodynanics with formula III in mice bearing SW620 xenografts;
(§1) Exponentially growing cells were exposed to 1% DMSO in culture medium (control) or a compound of formula I or III in 1% DMSO at the concentrations indicated in FIG. 4 to cells permeabilised with digitonin, or intact cells for 20 minutes prior to washing and digitonin-permeabilization. PARP activity was measured by incorporation of a [32P] labelled NAD+ substrate into TCA precipitateble polymers after stimulation by the addition of a blunt-ended oligonucleotide and compared with non-oligonucleotide-stimulated cells. PARP activity in tumour homogenates (1 in 40 in isotonic buffer) from formula III-treated mice was measured in the same way. PARP activity in pbls and tumour homogenates from formula I-phospate treated mice was measured by immunological detection of polymer using the 10H antibody. […] The poly(ADP-ribose) (PAR) polymer formation was quantified by chemiluminescence detection using a Fuji LAS3000 UV Illuminator by reference to serial dilutions of a PAR standard, following incubation with 10H antibody to PAR and a secondary anti-mouse antibody. The results were standardised by reference to the measured protein content of the homogenate.

[2] = system: VC8 cell line; assay: Clonogenic survival assay, VC8 cell line (lacks BRCA2)
Protocol: (§4) All cell lines in this study were grown in Dulbecco's modified Eagle's Medium (DMEM) with 10% Foetalbovine serum and penicillin (100 U/ml) and steptomycin sulphate (100 μg/mL) at 37° C. under an atmosphere containing 5% CO2.
(§5) The cells were harvested by trypsinisation, counted and seeded at varying densities in 10 cm dishes in fresh medium in the absence of drug for colony formation.
(§6) 7-10 days later the dishes were fixed with methanol:acetic acid 3:1 and stained with 0.4% crystal violet.
(§7) Colonies were counted and the survival relative to 1% DMSO control treated cells calculated.

[3] = system: SW620 xenografts; assay: Tumour growth (median relative tumour volume) in mice bearing SW620 xenografts; type: in vivo
Description: FIG. 8 is a graph showing the tumour growth (median relative tumour volume) in mice bearing SW620 xenografts following treatment with formula III in combination with temozolomide (TMZ) and with TMZ alone;
FIG. 9 is a graph showing the tumour growth (median relative tumour volume) of mice bearing SW620 xenografts following treatment with formula I-phosphate in combination with temozolomide (TMZ) and with formula I-phosphate and TMZ alone;
However, shortly after this time the tumour size begins to increase.

[4] = biological target: T2, PARP (Mus musculus, UniProt P11103); assay: PARP activity assay in digitonin-permeabilised L1210 cells; type: cell-based; set-up: endogenous in cells; host or cells: L1210 cells, digitonin-permeabilised; details: L1210 cells permeabilised prior to adding the inhibitor
Protocol: (§2) Exponentially growing cells were exposed to 1% DMSO in culture medium (control) or a compound of formula I or III in 1% DMSO at the concentrations indicated in FIG. 4 to cells permeabilised with digitonin, or intact cells for 20 minutes prior to washing and digitonin-permeabilization. PARP activity was measured by incorporation of a [32P] labelled NAD+ substrate into TCA precipitateble polymers after stimulation by the addition of a blunt-ended oligonucleotide and compared with non-oligonucleotide-stimulated cells. PARP activity in tumour homogenates (1 in 40 in isotonic buffer) from formula III-treated mice was measured in the same way. PARP activity in pbls and tumour homogenates from formula I-phospate treated mice was measured by immunological detection of polymer using the 10H antibody. Briefly, tumour homogenates diluted to up to 1:1000 in isotonic buffer were incubated with 350 μM NAD for 6 min and blotted onto nitrocellulose membrane. The poly(ADP-ribose) (PAR) polymer formation was quantified by chemiluminescence detection using a Fuji LAS3000 UV Illuminator by reference to serial dilutions of a PAR standard, following incubation with 10H antibody to PAR and a secondary anti-mouse antibody.

[5] = system: IrS ISF cell line; assay: cells; type: cell-based; details: Cricetulus griseus, 24 h, read-out: LC50 (the concentration of the active component that kills 50% of the cells)
Description: The AA8, irs1SF and CXR3 cell lines were provided by Larry Thompson.
Toxicity Assay—Clonogenic Survival Assay

[6] = Plasma and tumour concentrations in mice bearing SW620 xenografts after intraperitoneal administration; type: in vivo
[7] = biological target: T2, PARP; assay: PARP activity assay in intact L1210 cells (20 minutes exposure before permeabilisation); type: cell-based; set-up: endogenous in cells; host or cells: L1210 cells, digitonin-permeabilised; details: exposed 20 minutes prior to permeabilisation
Protocol: as §2

[8] = system: VC8 cell line; details: hamster, 24 h
Protocol: as §4, §5, §6, §7

[9] = biological target: T2, PARP; assay: PARP activity in mouse peripheral blood lymphocytes after formula I-phosphate (10H antibody detection); type: in vivo; set-up: PARP activity in pbls and tumour homogenates from formula I-phospate treated mice; from tissue; host or cells: peripheral blood lymphocytes of treated mice; details: 10 mg/kg intraperitoneal, up to 24 hr
Protocol: (§3) FIG. 6 is a pair of bar charts showing the blood and tumour pharmacokinetics and pharmacodynamics with formula I-phosphate at 1 mg/kg (upper) and 10 mg/kg (lower) in mice bearing SW620 xenografts;
as §1, with “antibody.” for “antibody. The results were standardised by reference to the measured protein content of the homogenate.”

[10] = Solubility of the phosphate salt; type: physicochemical; details: phosphate salt vs parent compound
[11] = biological target: T1, PARP; assay: PARP activity in SW620 xenograft tumour homogenates after formula I-phosphate (10H antibody detection); type: in vivo, mice
Protocol: as §3
as §1, with “antibody.” for “antibody. The results were standardised by reference to the measured protein content of the homogenate.”

[12] = 10 mg/kg intraperitoneal, SW620 xenograft

T2 sequence (P11103 whole entry): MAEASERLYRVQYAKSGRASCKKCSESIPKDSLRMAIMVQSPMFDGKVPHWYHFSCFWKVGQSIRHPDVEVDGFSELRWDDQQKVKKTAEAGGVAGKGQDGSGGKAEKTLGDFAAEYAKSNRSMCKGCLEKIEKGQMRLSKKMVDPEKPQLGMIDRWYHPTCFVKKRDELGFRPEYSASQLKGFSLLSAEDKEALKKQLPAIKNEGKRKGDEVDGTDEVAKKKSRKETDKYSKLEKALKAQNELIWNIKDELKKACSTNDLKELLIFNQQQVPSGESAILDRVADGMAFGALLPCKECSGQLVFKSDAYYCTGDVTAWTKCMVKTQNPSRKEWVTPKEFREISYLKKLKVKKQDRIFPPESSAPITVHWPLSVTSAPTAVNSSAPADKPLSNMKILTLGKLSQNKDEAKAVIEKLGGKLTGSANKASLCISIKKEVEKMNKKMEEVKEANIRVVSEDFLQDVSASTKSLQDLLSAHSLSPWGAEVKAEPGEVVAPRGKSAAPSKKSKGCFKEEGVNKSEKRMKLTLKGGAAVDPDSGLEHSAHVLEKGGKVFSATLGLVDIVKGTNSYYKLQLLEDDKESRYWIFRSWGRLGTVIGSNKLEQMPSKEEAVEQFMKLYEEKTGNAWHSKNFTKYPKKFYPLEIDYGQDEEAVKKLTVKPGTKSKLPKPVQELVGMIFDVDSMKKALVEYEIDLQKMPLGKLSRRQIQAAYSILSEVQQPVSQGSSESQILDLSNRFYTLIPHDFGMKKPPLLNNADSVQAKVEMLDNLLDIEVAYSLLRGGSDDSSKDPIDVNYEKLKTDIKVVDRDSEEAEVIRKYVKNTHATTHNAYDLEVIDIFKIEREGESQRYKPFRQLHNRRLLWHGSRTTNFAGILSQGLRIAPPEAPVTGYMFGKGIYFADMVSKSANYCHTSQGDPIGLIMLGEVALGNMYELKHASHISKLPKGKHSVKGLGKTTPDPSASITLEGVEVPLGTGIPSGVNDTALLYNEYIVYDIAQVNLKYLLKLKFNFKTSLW
T1 sequence (P09874 whole entry): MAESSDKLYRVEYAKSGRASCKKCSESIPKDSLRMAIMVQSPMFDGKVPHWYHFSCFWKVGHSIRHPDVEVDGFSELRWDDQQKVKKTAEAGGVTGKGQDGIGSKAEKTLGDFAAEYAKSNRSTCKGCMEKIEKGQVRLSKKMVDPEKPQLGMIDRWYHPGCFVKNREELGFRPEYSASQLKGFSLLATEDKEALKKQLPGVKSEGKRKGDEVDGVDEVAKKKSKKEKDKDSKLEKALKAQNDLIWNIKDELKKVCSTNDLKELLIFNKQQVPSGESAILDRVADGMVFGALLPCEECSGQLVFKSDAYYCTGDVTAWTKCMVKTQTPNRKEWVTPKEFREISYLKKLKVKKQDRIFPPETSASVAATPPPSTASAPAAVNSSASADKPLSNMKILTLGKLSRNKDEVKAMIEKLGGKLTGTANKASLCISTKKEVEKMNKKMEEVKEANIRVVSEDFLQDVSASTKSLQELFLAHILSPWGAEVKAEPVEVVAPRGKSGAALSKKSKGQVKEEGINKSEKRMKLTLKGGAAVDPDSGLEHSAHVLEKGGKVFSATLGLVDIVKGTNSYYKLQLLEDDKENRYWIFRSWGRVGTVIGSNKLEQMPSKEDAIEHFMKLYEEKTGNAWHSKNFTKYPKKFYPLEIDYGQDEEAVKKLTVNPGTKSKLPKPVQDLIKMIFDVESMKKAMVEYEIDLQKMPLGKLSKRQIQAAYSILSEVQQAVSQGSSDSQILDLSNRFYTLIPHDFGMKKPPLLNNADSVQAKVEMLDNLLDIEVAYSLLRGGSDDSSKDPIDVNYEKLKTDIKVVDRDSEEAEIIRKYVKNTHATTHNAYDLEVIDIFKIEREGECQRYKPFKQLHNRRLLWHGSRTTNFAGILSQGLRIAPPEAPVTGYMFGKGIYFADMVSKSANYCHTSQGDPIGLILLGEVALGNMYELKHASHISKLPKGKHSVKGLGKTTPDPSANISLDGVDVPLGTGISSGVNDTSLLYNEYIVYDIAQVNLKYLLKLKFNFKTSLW

CN(C)Cc1ccc(-c2nc3cccc4c3n2CCNC4=O)cc1 [Formula III]
PARP activity in the tumour [1]: inhibits PARP activity in the tumour | LC90 (concentration of active component that kills 90% of the cells) [2]: 1200 nM | CC50 ([2]; read-out: LC50): 43 nM | time over which tumour shrinks to an undetectable size ([3]; formula III 5 mg/kg daily×5 with temozolomide 68 mg/kg daily×5): around 15 days | further time tumour size remains undetectable ([3]; formula III 5 mg/kg daily×5 with temozolomide 68 mg/kg daily×5, then begins to increase): 50 days | tumour outcome at autopsy ([3]; formula III 15 mg/kg daily×5 with temozolomide, end of the experiment): complete tumour regression | further time tumour size remains undetectable ([3]; formula III 15 mg/kg daily×5 with temozolomide, until the end of the experiment): 80 days | PARP inhibitory activity, formula I compared with formula III [4]: no difference | CC50 [5]: 100 nM | distribution to tumour [6, 12]: distributes well to the tumour | retention in tumour relative to plasma with time [6, 12]: preferentially retained with time

CNCc1ccc(-c2[nH]c3cc(F)cc4c3c2CCNC4=O)cc1 [Formula I]
LC90 (concentration of active component that kills 90% of the cells) [2]: 27 nM | PARP inhibitory activity, formula I compared with formula III [7]: more potent in intact cells | PARP inhibitory activity, formula I compared with formula III [4]: no difference | CC50 [8]: 12 nM

CNCc1ccc(-c2[nH]c3cc(F)cc4c3c2CCNC4=O)cc1.O=P(O)(O)O [formula I-phosphate]
PARP activity in pbls [9]: < 50 % control | solubility relative to formula I [10]: increases the solubility | effect on PARP activity ([11]; 1 mg/kg intraperitoneal, compared with 10 mg/kg, pbls and tumour): less pronounced effect | PARP activity in tumour ([11]; 10 mg/kg intraperitoneal, up to 24 hr, SW620 xenograft): < 50 % control | levels of formula I in plasma and tumour ([6]; 1 mg/kg intraperitoneal, compared with 10 mg/kg): lower levels | plasma concentration of parent compound formula I ([6]; 10 mg/kg intraperitoneal, 24 hr after administration): none could be detected | tumour concentration of parent compound formula I ([6]; 10 mg/kg intraperitoneal, 24 hr after administration, SW620 xenograft): significant levels were detectable | plasma concentration of parent compound formula I ([6]; 10 mg/kg intraperitoneal, thirty minutes after administration): highlevels | tumour concentration of parent compound formula I ([6]; 10 mg/kg intraperitoneal, thirty minutes after administration, SW620 xenograft): highlevels
